Results reported in PMC10894092, “Characterization of a recombinant Aspergillus niger GZUF36 lipase immobilized by ionic liquid modification strategy” (Applied Microbiology and Biotechnology, 2024).

Test system: T1, PEXANL1
T1 construct: gene EXANL1; recombinant extracellular lipase, secreted/purified from Pichia pastoris GS115
Assay: p-nitrophenol release at […] nm, Lineweaver-Burk
Assay type: biochemical, Aspergillus niger
Conditions: free enzyme; pH 5.0, 45 °C; 5-30 mM substrate range; phosphate-citrate buffer, substrate stock in 2-propanol

SMILES: CCCCCCCCCCCCCCCC(=O)Oc1ccc([N+](=O)[O-])cc1 [p-nitrophenyl palmitate]
- Km: 2650 µM
